In PMC2665256 (Biochemical and biophysical research communications, 2009):

Target: acyl-coenzyme A:cholesterol acyltransferase (ACAT)
Type: biochemical, Mus musculus

With CCCCCCCCCC[Si](C)(C)CCC(=O)NC(Cc1ccc(C)cc1)c1ccccc1 (centres unmarked) [58-035] the IC50 was 400 ± 200 nM.
Compound Cc1ccc(Cn2nc(C(=O)N[C@@H]3C(C)(C)[C@@H]4CC[C@@]3(C)C4)cc2-c2ccc(Cl)c(C)c2)cc1 [SR144528] has an IC50 of 3600 ± 1100 nM.
